Laboratory results reported in patent publication US12703885B2, “Method for predicting the response to CDK4/6 inhibitor therapy in cancer patients” (GBG FORSCHUNGS GMBH, priority 2021, dated 2026).

System: HR+, HER2− eBC at high risk of recurrence
Assay: PENELOPE-B randomized, double-blind, placebo-controlled Phase 3 study; Cox regression for endpoint iDFS
Type: in vivo, human
From the text: The data underlying the present invention were obtained in the context of the PENELOPE^B study (NCT01864746). PENELOPE^B is a randomized, double-blind, placebo-controlled Phase 3 study comparing one year of palbociclib plus at least five years of standard adjuvant endocrine therapy to placebo plus at least five years of standard adjuvant endocrine therapy in 1,250 women with HR+, HER2− eBC at high risk of recurrence who have residual invasive disease after completing neoadjuvant chemotherapy. Patients in the trial scored 3 or higher (or 2 if there were lymph node metastases at the time of surgery) on the clinical-pathologic stage—estrogen/grade (CPS-EG). The CPS-EG is a validated risk assessment tool combining: clinical stage before neoadjuvant treatment, pathological stage after neoadjuvant treatment, grading and estrogen-receptor status. More than 190 clinical sites in 12 countries around the globe participated in PENELOPE-B. The study opened in November 2013 and closed recruitment on Dec. 31, 2017. RNA was extracted from post-surgical residual tumor tissue of patients from the Penelope^B study (GBG 78) and quantified using the HTG EdgeSeq Oncology Biomarker Panel (HTG Molecular Diagnostics Inc.) resulting in a so-called count value for each of the 2559 genes in the assay. Quality control measures were performed as described by the manufacturer. For 906 patients HTG measurements were successfully performed and passed said quality controls. […] Each regression model was calculated based on 906 patients from the Penelope^B study. […] The 20 genes with smallest p-values for the interaction were selected. • 2) For each gene from step 1) the technical eligibility for measurement was evaluated. […] In the cohort of 782 patients the gene expression value was adjusted to the lower limit for between 0 and 16 patients, and to the upper limit for between 0 and 8 patients. • 4) The correlation between genes was analyzed by hierarchical clustering and analysis of the Pearson correlation coefficient matrix based on graphical methods. […]

CC(=O)c1c(C)c2cnc(Nc3ccc(N4CCNCC4)cn3)nc2n(C2CCCC2)c1=O [palbociclib]
HR for iDFS, palbociclib vs. placebo (95% CI) (overall population, n=906, plus standard adjuvant endocrine therapy, no significant difference between arms): 0.89 (0.69-1.16)
HR (95% CI), arm (palbociclib vs placebo), iDFS (subgroup score3dich high (above median of average of PIAS2, MAP2K6, DSG3, ABCC12, IFT52 expression)): 0.54 (0.37-0.79)
HR (95% CI), arm (palbociclib vs placebo), iDFS (subgroup score3dich low (below median of average of PIAS2, MAP2K6, DSG3, ABCC12, IFT52 expression)): 1.45 (1.00-2.09)
